Assay type in all cases: biochemical
Assay [1] has as its target T1, recombinant PI3Kδ kinase (Homo sapiens, UniProt O00329). As to the kind of experiment: Cell free PI3Kδ kinase activity, ADP-Glo chemiluminescence assay. An excerpt: The chemiluminescence method was used to determine the inhibitory effect of the 15 hit compounds on PI3Kδ (Table 5). […] For 14317, the reason for its high activity was probably the long side chain on its guanine, which was the same as the reported PI3Kδ selective inhibitor Compound 1 (idelalisib) and Compound 7 (GNE-293). For Compounds 9 and 10, the reason the pyridazinone skeleton made them so active requires further study. Finally, the two compounds with the novel skeleton were selected for the subsequent molecular dynamics (MD) simulations. […]
The inhibitory activities of inhibitors against PI3Kδ were determined by the ADP-Glo assay. The recombinant PI3Kδ kinase was diluted to 2.2 μg/mL using reaction buffer (50 mM HEPES, pH 7.5, 10 mM MgCl2, 0.1 mg/mL BSA, 2 mM DTT, 1% DMSO), and ATP was diluted with reaction buffer (10 mM) to 250 μM, and the test compound and positive drug (idelalisib) were formulated into four concentration-gradient solutions (6 × 10^−2 M, 6 × 10^−4 M, 6 × 10^−6 M, 6 × 10^−8 M). The reaction was started by sequentially adding 2 μL of an ATP solution, 1 μL of a drug solution, and 2 μL of an enzyme solution in 96 wells. The assay was conducted for 1 h at 37 °C before the addition of 5 μL ADP-Glo reagent and incubation for 40 min at room temperature. A 10 μL amount of kinase detection reagent (Promega, Beijing, China) was added and incubated for 30 min at room temperature before the luminescence value was measured using a chemiluminescence module of a full-wavelength multi-function microplate reader (PerkinElmer, Singapore).
(In general: ADP-Glo first removes unused ATP, then detects ADP through luciferase.)

Assay [2] has as its target PI3Kγ (Homo sapiens, UniProt P48736). As to the kind of experiment: PI3K isoform selectivity, chemiluminescence kinase assay (γ). Conditions: isoform selectivity experiment.
In assay [3] the target is PI3Kβ (Homo sapiens, UniProt P42338). As to the kind of experiment: PI3K isoform selectivity, chemiluminescence kinase assay (β). Conditions: isoform selectivity experiment.
Chain of PI3Kβ (P42338 whole entry, canonical isoform): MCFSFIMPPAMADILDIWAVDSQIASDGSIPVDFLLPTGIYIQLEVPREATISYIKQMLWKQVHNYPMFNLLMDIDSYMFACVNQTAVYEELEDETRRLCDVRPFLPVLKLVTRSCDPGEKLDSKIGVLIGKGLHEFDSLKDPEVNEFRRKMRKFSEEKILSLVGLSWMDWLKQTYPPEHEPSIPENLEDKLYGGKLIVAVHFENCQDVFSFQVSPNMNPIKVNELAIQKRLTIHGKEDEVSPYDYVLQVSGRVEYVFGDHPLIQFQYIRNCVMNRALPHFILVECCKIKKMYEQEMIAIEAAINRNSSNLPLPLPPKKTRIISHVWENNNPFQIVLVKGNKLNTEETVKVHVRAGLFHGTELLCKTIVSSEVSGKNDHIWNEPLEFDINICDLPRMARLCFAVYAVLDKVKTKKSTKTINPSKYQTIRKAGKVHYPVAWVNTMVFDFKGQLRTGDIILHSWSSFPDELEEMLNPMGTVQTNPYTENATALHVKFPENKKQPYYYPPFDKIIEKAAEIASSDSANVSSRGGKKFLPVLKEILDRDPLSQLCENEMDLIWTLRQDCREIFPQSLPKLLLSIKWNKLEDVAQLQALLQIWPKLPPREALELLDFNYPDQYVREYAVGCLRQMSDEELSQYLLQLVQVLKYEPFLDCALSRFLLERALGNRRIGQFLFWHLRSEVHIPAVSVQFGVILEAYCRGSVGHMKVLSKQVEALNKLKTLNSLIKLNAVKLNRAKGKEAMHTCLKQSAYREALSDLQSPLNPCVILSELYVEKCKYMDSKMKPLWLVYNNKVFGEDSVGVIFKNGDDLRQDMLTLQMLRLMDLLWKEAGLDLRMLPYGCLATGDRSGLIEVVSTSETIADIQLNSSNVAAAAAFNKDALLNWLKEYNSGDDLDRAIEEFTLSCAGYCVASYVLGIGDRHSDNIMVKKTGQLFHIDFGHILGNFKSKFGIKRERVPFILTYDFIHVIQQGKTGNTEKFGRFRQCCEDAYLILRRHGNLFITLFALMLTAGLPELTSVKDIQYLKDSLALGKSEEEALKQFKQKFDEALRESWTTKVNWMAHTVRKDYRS
Chain of PI3Kβ (P27986 whole entry partner, canonical isoform): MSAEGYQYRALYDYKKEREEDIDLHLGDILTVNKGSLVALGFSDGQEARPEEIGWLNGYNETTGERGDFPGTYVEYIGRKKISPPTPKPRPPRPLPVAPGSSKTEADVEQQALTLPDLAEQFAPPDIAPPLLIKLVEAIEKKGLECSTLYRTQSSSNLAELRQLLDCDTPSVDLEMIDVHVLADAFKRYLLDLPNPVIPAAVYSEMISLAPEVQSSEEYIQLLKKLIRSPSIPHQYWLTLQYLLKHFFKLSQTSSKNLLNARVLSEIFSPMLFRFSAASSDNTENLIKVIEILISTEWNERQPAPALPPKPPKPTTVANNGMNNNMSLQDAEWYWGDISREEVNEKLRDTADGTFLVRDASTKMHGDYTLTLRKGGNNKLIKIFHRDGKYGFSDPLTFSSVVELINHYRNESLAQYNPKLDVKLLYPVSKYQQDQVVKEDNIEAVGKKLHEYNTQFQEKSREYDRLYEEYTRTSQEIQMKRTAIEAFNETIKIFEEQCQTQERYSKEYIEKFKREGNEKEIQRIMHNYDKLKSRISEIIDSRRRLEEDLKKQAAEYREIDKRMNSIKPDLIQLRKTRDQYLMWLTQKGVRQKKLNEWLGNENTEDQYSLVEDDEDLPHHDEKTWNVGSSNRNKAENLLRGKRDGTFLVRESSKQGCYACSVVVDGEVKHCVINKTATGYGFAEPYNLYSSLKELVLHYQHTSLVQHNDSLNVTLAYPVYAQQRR
For assay [4], the target named is T1, recombinant PI3Kδ kinase. As to the kind of experiment: Cell free PI3Kδ kinase activity, ADP-Glo chemiluminescence assay. Conditions: PI3Kδ versus α, β, γ.
The target in assay [5] is PI3Kα (Homo sapiens, UniProt P42336). As to the kind of experiment: PI3K isoform selectivity, chemiluminescence kinase assay (α). Particulars: isoform selectivity experiment.
Chain of PI3Kα (P42336 whole entry, species assumed, canonical isoform): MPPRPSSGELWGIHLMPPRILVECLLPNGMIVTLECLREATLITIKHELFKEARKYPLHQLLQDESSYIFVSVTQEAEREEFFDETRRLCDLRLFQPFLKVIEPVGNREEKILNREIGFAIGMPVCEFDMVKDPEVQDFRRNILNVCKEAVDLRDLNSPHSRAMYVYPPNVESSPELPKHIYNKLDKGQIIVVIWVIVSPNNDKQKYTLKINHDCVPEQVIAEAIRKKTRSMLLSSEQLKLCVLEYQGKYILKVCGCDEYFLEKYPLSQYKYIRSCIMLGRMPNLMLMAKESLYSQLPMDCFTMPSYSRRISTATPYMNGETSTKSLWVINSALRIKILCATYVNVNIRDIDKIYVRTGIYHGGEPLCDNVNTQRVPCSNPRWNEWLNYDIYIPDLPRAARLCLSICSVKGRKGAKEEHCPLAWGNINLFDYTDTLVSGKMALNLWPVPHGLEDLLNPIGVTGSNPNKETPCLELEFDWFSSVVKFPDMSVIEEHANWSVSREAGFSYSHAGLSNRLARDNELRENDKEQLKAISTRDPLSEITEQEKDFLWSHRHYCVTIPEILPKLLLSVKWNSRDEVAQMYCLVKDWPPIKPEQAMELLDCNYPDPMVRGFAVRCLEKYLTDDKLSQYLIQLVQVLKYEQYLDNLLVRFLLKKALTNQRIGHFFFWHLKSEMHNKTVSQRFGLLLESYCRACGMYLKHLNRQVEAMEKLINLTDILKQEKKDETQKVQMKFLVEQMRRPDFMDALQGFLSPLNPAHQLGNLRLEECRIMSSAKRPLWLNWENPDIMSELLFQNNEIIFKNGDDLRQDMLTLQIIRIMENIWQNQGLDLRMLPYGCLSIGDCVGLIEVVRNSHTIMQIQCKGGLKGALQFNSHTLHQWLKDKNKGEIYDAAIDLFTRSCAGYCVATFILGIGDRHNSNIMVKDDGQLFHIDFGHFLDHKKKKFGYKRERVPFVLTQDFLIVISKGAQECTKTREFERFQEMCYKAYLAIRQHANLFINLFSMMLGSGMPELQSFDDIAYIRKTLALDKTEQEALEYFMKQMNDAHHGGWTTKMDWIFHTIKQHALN
Chain of PI3Kα (P27986 whole entry partner, species assumed, canonical isoform): as the sequence (P27986 whole entry partner, canonical isoform) above
The mark [6] stands for this setting: 15 hit compounds from NCI database, chemiluminescence method, read-out: PI3Kδ IC50.

Structures are written as SMILES. Entries after “also recorded” stand apart in the source; their conditions may differ. Read-outs that look alike come from different tables or passages of the source.

The term IC50 denotes the concentration at which inhibition is half-maximal.

T1 sequence (O00329 whole entry): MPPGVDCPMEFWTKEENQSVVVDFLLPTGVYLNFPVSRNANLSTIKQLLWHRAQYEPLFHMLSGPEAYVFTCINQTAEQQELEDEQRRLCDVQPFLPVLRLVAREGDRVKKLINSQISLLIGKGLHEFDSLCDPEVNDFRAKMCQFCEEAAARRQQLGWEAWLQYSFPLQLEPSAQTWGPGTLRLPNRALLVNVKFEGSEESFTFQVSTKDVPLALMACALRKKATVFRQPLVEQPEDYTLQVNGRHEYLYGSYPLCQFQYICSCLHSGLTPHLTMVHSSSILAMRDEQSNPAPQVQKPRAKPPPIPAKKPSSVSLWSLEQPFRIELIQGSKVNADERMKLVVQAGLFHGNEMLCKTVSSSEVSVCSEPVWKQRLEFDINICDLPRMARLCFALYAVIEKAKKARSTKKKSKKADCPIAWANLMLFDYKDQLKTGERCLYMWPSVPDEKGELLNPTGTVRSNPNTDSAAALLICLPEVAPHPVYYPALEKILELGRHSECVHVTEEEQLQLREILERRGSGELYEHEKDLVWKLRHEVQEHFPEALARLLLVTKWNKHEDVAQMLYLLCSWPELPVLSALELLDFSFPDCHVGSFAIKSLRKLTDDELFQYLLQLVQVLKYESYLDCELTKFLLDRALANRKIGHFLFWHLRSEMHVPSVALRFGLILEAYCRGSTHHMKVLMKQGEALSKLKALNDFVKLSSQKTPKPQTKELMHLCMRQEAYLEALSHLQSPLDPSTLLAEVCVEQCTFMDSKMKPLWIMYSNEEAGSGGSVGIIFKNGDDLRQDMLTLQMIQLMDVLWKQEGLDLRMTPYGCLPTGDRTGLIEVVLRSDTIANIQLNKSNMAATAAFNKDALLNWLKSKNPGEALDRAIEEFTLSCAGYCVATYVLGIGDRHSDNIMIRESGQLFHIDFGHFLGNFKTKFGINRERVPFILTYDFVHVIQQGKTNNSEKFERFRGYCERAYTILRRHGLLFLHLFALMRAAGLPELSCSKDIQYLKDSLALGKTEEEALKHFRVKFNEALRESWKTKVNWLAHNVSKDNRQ
T1 sequence (P27986 whole entry partner): as the sequence (P27986 whole entry partner, canonical isoform) above
Chain of PI3Kγ (P48736 whole entry, canonical isoform): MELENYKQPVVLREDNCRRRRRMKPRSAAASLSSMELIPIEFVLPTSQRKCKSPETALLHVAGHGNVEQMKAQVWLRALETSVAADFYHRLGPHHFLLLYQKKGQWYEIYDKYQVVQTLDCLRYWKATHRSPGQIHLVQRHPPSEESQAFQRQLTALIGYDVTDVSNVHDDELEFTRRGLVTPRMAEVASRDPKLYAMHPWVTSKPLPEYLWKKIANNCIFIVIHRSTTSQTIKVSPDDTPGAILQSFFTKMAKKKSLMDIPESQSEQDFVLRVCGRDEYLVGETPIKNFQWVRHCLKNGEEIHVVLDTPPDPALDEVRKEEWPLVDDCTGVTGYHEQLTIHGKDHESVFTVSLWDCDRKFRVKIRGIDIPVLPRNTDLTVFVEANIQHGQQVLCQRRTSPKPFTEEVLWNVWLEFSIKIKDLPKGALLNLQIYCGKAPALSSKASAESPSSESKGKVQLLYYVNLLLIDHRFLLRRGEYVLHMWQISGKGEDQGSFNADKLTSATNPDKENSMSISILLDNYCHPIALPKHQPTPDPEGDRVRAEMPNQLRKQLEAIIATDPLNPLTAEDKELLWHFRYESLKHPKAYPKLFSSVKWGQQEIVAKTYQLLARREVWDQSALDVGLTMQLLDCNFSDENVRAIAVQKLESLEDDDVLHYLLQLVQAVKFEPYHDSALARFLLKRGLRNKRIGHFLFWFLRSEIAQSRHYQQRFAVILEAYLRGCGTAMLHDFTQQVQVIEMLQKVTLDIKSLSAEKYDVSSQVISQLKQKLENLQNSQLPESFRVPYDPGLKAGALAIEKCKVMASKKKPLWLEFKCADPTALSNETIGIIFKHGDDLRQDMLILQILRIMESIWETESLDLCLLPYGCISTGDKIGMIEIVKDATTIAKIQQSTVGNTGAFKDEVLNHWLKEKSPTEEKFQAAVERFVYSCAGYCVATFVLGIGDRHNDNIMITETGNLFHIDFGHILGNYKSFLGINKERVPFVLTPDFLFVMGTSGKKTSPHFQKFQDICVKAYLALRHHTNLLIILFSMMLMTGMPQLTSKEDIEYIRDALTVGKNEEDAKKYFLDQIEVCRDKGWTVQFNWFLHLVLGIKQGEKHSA

On to `CC(=O)Nc1cc2c(cc1Cl)-c1ccc(Cl)cc1C2=O` [Compound 57442], for which the half-maximal inhibitory concentration (IC50) in assay [1] (setting [6]) amounted to 500 µM.
On to `O=c1cc(N2CCOCC2)oc2c(-c3ccccc3)cccc12` [LY294002, reference compound], for which, in assay [1] (read-out: PI3K IC50 δ), the IC50 stood at 3.49 µM.
Regarding `CC(=O)Nc1cc2c(cc1Br)-c1ccc(F)cc1C2=O` [Compound 73075], the IC50 in assay [1] (setting [6]) came out at 248 µM.
Turning to `CC/C(=N\Nc1cn[nH]c(=O)c1Br)c1ccccc1` [Compound 9], the IC50 in assay [1] (setting [6]) amounted to 72.2 µM.
Same read-out and setting: with `COc1cc(OC)c(OC)cc1/C=C/c1ccnc2ccccc12` [Compound 80756] the figure was 192 µM; with `CCOC(=O)Nc1ccc2c(c1Cl)C(=O)c1ccccc1C2=O` [Compound 39951], 522 µM.
For `CSc1cc2c(cc1NC(C)=O)C(=O)c1cc(F)ccc1-2` [Compound 109638], the 50% inhibitory concentration (IC50) in assay [1] (setting [6]) came to 169 µM.
Take `C/C(=N\Nc1cn[nH]c(=O)c1Br)c1ccccc1` [Compound 10]: the IC50 in assay [2] turned out to be 226 µM; in assay [3], 188 µM; in assay [1] (setting [6]), 18.9 µM; in assay [5] it was 75 µM. Also, the PI3K isoform selectivity result in assay [4] is given as “significant selectivity; also recorded: high isoform selectivity”.
`CCN(CC)CCOc1nc2c(c(=O)n(C)c(=O)n2C)n1C` [Compound 14317]: the IC50 in assay [1] (setting [6]) was determined as 28.1 µM.
Turning to `COc1c2c(c3c(c1OC)c(=O)c1ccccc1n3C)OCO2` [Compound 34758], the 50% inhibitory concentration (IC50) in assay [1] (setting [6]) amounted to 481 µM.
On to `CCOC(=O)c1cc(Sc2ccccc2)nc2ccccc12` [Compound 25679], for which, in assay [1] (setting [6]), the IC50 is 289 µM.
As to `O=C1c2ccccc2-c2cc(Br)c(NC(=O)C(F)(F)F)cc21` [Compound 80144], the IC50 in assay [1] (setting [6]) came to 809 µM.

(Values after article PMC6928688, “Identification of Novel PI3Kδ Selective Inhibitors by SVM-Based Multistage Virtual Screening and Molecular Dynamics Simulations” (International Journal of Molecular Sciences, 2019).)
